In the supplement of paper PMC10307832:

How the values were obtained:
Assay in all cases: relative viability (nuclei count vs DMSO), 5 days (fraction); higher = more cells survive
[1] = compound: CN[C@@H]1C[C@H]2O[C@@](C)([C@@H]1OC)n1c3ccccc3c3c4c(c5c6ccccc6n2c5c31)C(=O)NC4 [Staurosporine] + Cc1cc(Nc2cc(N3CCN(C)CC3)nc(Sc3ccc(NC(=O)C4CC4)cc3)n2)n[nH]1 [Tozasertib] (partner 0.1 µM)
In short: (§1)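 Each reported value is a median over duplicate plates. It expresses relative viability: treated-well nuclei count divided by vehicle-well nuclei count. Lung cancer cell lines in 1536-well plates were dosed by pin tool a day after seeding, alone with one drug or with a fixed anchor-drug dose plus five library-drug doses (not always all listed) in √10 steps, and nuclei were counted after 5 days.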

[2] = compound: CC1=C(CC(=O)O)c2cc(F)ccc2/C1=C\c1ccc([S+](C)[O-])cc1 [Sulindac] + Cc1nc(NC(=O)N2CCC[C@H]2C(N)=O)sc1-c1ccnc(C(C)(C)C(F)(F)F)c1 [Alpelisib] (partner 2 µM)
In short: as §1

[3] = compound: O=c1[nH]cc(F)c(=O)[nH]1 [5-Fluorouracil] + NC(=O)Nc1cc(-c2cccc(F)c2)sc1C(=O)N[C@H]1CCCNC1 [AZD7762] (partner 0.2 µM)
In short: as §1

[4] = compound: O=c1[nH]cc(F)c(=O)[nH]1 [5-Fluorouracil] + CC1(C)CCC(c2ccc(Cl)cc2)=C(CN2CCN(c3ccc(C(=O)NS(=O)(=O)c4ccc(N[C@H](CCN5CCOCC5)CSc5ccccc5)c(S(=O)(=O)C(F)(F)F)c4)cc3)CC2)C1 [Navitoclax] (partner 0.5 µM)
In short: as §1

Cell Line	relative viability ([1]; first compound 0.005 µM)	relative viability ([1]; first compound 0.01581 µM)	relative viability ([1]; first compound 0.05 µM)	relative viability ([1]; first compound 0.1581 µM)	relative viability ([1]; first compound 0.5 µM)	relative viability ([2]; first compound 0.08 µM)	relative viability ([2]; first compound 0.253 µM)	relative viability ([2]; first compound 0.8 µM)	relative viability ([2]; first compound 2.53 µM)	relative viability ([2]; first compound 8 µM)	relative viability ([3]; first compound 0.02 µM)	relative viability ([3]; first compound 0.2 µM)	relative viability ([3]; first compound 0.6325 µM)	relative viability ([3]; first compound 2 µM)	relative viability ([4]; first compound 0.02 µM)	relative viability ([4]; first compound 0.2 µM)	relative viability ([4]; first compound 0.6325 µM)	relative viability ([4]; first compound 2 µM)
NCI-H727	0.562	0.429	0.303	0.318	0.297	0.687	0.537	0.591	0.579	0.771	0.697	0.718	0.527	0.605	0.369	0.41	0.527	0.315
CAL-12T	0.146	0.117	0.101	0.132	0.0975		1.37	0.999	1.31	1.54	0.685	0.588	0.421	0.421	1.13	1.25	0.974	0.489
NCI-H1648	0.236	0.185	0.169	0.214	0.243						0.582	0.831	0.493	0.435				
NCI-H522	0.541		0.492	0.433	0.486						0.948	0.98	0.755	0.916				
IA-LM						0.825	0.955		0.977	1.13					0.934	0.328	0.179	0.178
EPLC-272H	0.381	0.17	0.147	0.104	0.108	0.759		0.618	0.985	1.03	0.243	0.122	0.109	0.102	1.18	0.79	0.372	0.259
A-427	0.171	0.113	0.1	0.104	0.0934	1.03	1.08	0.534	1.09	1.11	0.676	0.805	0.308	0.253	0.827	0.999	0.879	0.438
NCI-H661	0.392	0.445	0.401	0.335	0.238	0.639	0.551	0.535	0.621	0.725								
NCI-H1993	0.639	0.535	0.434	0.491	0.429	0.664	0.674	0.695	0.753	0.707	0.737	0.622	0.542	0.505	0.952	0.885	0.752	0.669
NCI-H358	0.0876	0.0765	0.0699	0.0598	0.0619	1.01	0.878	0.684	0.808	1.1	0.595	0.505	0.477	0.293				
SK-LU-1	0.168	0.115		0.133	0.0818	1.11	1.02	0.964	0.936	1.23					1.1	1.2	0.796	0.753
NCI-H1915	0.45	0.229	0.217	0.108	0.154	1.05	1.11	0.999	1.04	1.12	0.409	0.683	0.643	0.577	0.714	0.8	0.779	0.668
